Results on two compounds are retold here after patent US20080207592A1, “Novel 1,4-benzothiazepine-1,1-dioxide derivative having improved properties, method for the production thereof, medicaments containing said compound, and use thereof” (SANOFI-AVENTIS DEUTSCHLAND GMBH, priority 2005, published 2008).

The assay has as its target T1, recombinantly expressed human sodium-dependent ileal bile acid transporter (IBAT) (Homo sapiens, UniProt Q12908).
T1 construct: Bases 599 to 1645 correspond to the complete coding region of the human IBAT; expressed in transfected cells
T1 sequence (Q12908 1-348): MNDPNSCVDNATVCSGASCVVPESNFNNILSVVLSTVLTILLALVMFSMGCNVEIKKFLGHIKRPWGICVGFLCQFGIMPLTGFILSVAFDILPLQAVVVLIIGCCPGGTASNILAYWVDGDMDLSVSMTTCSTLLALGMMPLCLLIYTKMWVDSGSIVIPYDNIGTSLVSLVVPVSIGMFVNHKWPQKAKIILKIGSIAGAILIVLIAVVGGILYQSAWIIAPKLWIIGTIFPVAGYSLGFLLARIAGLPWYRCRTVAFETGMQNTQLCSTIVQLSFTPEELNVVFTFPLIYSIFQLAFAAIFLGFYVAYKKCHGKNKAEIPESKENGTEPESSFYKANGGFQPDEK
In words: in vitro IBAT inhibition test ([3H]-taurocholic acid uptake into CHO-hIBAT cells). To be noted: for IC50: CHO-hIBAT cells, taurocholic acid 10 μM, 60 min at room temperature. It is filed as cell-based. As to the method: Biological testing of the compound A according to the invention was carried out using the in vitro IBAT inhibition test. This test examines the effect of the compound according to the invention on the transport activity of the recombinantly expressed human sodium-dependent ileal bile acid transporter (IBAT=ileal Na^+/bile acid contransporter, ASBT=apical sodium-dependent bile acid transporter, SLC10A2=solute carrier family 10, member 2).
The cDNA (complementary deoxyribonucleic acid) of human IBAT was cloned using standard methods of molecular biology as described, for example, in Molecular Cloning: A Laboratory Manual, by Joseph Sambrook and David Russell, and introduced into the pcDNA1 vector from Invitrogen. […] Bases 599 to 1645 correspond to the complete coding region of the human IBAT.
The expression vector for the human IBAT was introduced by means of stable transfection into CHO (Chinese hamster ovary) cells. To select single cell clones, 400 μg/ml of geneticin was added to the cell culture medium (Ham's F12 medium supplemented with 10% fetal calf serum, 100 units/ml of penicillin, 100 units/ml of streptomycin). The functionality of the single cell clones resulting from the selection was tested via their uptake activity for radioactively labeled taurocholic acid ([^3H]-TCA). […]
CHO-hIBAT cells were sown at a concentration of 40 000 cells per well in cell culture medium in poly-D-lysine-coated 96-well plates and cultivated for 24 h. […] Finally, 100 μl of scintillation fluid were added to each well, and the radioactivity taken up into the cells was determined in a MicroBeta scintillation microplate reader from Wallac.
The half-maximal inhibitory effect of the test compound (IC50 value, inhibitory concentration 50) was determined as follows:
1. […] This is the value measured in the absence of substance, measured in sodium-comprising transport assay buffer.
2. […] This is the value measured in the absence of substance, measured in sodium-free transport assay buffer. […]

Structures are written as SMILES.

By IC50 is commonly meant the concentration that inhibits the measured activity by half. In the case of `CCCCC1(CCCC)CS(=O)(=O)c2ccc(N(C)C)cc2[C@@H](c2cccc(NC(=O)[C@H](O)[C@@H](O)[C@H](O)[C@H](O)CO)c2)N1` [compound 11a, reference compound], the IC50 came out at 319 nM.
Take `CCCCC1(CCCC)CS(=O)(=O)c2ccc(N(C)C)cc2[C@@H](c2cccc(NC(=O)NC[C@H](O)[C@@H](O)[C@H](O)[C@H](O)CO)c2)N1` [Example A]: the IC50 was 155 nM. Besides, the “activity compared to comparative example from EP 1 169 313 (higher)” value (relative to compound 11a of EP 1 169 313, from IC50 (human IBAT)) worked out at 206%.
